Data published in US20230074545A1, “TREATMENT OF CANCER WITH CDK12/13 INHIBITORS” (Kinnate Biopharma Inc., priority 2019, published 2023).

What was measured:
Experiment in all cases: Radiometric kinase panel
Assay type in all cases: biochemical
[1] = target: T1, TBK1 (Homo sapiens, UniProt Q9UHD2)
T1 construct: either as full-length or enzymatically active fragments; purchased ProQinase GmbH (Reaction Biology)
Protocol: (§1) The compounds 1-5 (see Table 1) were assayed for kinase activity at ProQinase (ProQinase GmbH, Reaction Biology; Freiburg, Germany) using their commercially available radiometric kinase assay services. Briefly, the compounds were provided as solids and were dissolved to 1×10^−03 M/100% DMSO stock solutions on the day of assay. All protein kinases were provided by ProQinase and were expressed in Sf9 insect cells or in E. coli as recombinant GST-fusion proteins or His-tagged proteins, either as full-length or enzymatically active fragments. All kinases were produced from human cDNAs and purified by either GSH-affinity chromatography or immobilized metal. The purity of the protein kinases was examined by SDS-PAGE/Coomassie staining, the identity was checked by mass spectroscopy. A radiometric protein kinase assay (^33PanQinase® Activity Assay) was used for measuring the kinase activity of the protein kinase. All kinase assays were performed in 96-well FlashPlates™ from PerkinElmer (Boston, Mass., USA) in a 50 microliter reaction volume. The reaction cocktail was pipetted in four steps in the following order: 1) 25 microliter of assay buffer (standard buffer/[gamma-^33P]-ATP); 2) 10 microliter of ATP solution (in H2O); 3) 5 microliter of test compound (in 10% DMSO); 4) 10 microliter of enzyme/substrate mixture.
(§2) Compound 4 was analyzed for selectivity against a panel of other kinases at ProQinase using their commercially available radiometric kinase assay services and the methods described in Example 1.

[2] = target: T2, LCK (Homo sapiens, UniProt P06239)
T2 construct: either as full-length or enzymatically active fragments; purchased ProQinase GmbH (Reaction Biology)
Protocol: as §1, §2

[3] = target: T3, MASTL (Homo sapiens, UniProt Q96GX5)
T3 construct: either as full-length or enzymatically active fragments; purchased ProQinase GmbH (Reaction Biology); host or cells: Sf9 insect cells or E. coli (not specified per kinase)
Protocol: as §1, §2

[4] = target: T4, ALK (Homo sapiens, UniProt Q9UM73)
T4 construct: either as full-length or enzymatically active fragments; purchased ProQinase GmbH (Reaction Biology)
Protocol: as §1, §2

[5] = target: T5, ERBB4 (Homo sapiens, UniProt Q15303)
T5 construct: either as full-length or enzymatically active fragments; purchased ProQinase GmbH (Reaction Biology); host or cells: Sf9 insect cells or E. coli (not specified per kinase)
T5 sequence (Q15303 26-1308): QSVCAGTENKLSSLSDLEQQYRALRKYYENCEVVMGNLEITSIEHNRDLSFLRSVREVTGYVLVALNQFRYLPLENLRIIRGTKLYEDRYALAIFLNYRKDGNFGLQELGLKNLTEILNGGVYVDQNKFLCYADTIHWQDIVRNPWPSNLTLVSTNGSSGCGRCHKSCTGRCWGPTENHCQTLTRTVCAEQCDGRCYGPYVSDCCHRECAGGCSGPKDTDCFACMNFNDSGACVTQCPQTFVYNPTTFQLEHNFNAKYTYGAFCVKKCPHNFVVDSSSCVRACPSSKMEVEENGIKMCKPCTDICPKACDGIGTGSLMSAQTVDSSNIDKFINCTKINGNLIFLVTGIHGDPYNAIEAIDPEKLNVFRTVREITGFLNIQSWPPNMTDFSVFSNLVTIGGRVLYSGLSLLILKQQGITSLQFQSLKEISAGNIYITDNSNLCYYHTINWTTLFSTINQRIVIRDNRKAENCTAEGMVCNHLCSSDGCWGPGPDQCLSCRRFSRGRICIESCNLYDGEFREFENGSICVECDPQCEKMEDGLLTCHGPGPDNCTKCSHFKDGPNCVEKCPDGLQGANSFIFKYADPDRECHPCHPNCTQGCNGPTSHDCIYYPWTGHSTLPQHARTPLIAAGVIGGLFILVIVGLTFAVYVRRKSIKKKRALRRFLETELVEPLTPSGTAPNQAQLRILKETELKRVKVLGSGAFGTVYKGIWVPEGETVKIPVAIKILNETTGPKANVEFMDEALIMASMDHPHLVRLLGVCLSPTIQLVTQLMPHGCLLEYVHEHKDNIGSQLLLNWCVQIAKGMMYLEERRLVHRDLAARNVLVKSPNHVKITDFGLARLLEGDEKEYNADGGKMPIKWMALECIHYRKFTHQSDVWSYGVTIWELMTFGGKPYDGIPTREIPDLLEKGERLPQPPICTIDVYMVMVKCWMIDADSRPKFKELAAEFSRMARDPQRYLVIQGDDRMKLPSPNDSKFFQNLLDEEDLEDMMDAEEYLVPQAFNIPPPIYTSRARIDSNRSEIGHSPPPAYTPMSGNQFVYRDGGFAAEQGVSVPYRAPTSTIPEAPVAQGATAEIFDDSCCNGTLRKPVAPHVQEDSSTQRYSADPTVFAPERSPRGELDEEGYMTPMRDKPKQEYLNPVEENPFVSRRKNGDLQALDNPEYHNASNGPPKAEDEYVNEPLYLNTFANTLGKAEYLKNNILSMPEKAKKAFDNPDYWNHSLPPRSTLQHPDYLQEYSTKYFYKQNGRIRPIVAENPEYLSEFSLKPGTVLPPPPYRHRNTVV
Protocol: as §1, §2

[6] = target: T6, PKCnu (Homo sapiens, UniProt O94806)
T6 construct: either as full-length or enzymatically active fragments; purchased ProQinase GmbH (Reaction Biology)
T6 sequence (O94806 whole entry, the tested form may be a part): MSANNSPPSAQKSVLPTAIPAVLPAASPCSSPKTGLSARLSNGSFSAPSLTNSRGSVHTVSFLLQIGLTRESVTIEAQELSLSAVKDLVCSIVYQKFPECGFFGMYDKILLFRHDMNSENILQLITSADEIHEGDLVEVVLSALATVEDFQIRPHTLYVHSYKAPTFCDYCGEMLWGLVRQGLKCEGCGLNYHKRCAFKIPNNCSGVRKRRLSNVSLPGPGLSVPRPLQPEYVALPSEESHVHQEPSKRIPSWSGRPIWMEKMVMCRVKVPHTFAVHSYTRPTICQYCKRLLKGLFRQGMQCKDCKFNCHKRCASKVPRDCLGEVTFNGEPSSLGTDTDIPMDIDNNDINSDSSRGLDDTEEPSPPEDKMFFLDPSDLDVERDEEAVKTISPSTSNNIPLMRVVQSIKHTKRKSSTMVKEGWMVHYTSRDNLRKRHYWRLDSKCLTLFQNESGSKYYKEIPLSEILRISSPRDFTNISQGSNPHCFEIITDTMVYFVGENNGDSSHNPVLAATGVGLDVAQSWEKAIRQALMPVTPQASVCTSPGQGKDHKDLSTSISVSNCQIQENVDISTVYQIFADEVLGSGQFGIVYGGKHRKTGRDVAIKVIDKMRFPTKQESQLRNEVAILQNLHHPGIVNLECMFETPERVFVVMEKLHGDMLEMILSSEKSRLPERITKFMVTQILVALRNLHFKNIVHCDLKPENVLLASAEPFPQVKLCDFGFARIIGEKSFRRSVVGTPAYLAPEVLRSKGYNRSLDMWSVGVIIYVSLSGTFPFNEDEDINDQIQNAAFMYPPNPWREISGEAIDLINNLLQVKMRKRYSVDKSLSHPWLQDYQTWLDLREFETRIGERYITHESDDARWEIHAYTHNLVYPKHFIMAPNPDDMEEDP
Protocol: as §1, §2

[7] = target: T7, WNK2 (Homo sapiens, UniProt Q9Y3S1)
T7 construct: either as full-length or enzymatically active fragments; purchased ProQinase GmbH (Reaction Biology)
Protocol: as §1, §2

[8] = target: T8, HCK (Homo sapiens, UniProt P08631)
T8 construct: purchased ProQinase GmbH (Reaction Biology)
T8 sequence (P08631 whole entry): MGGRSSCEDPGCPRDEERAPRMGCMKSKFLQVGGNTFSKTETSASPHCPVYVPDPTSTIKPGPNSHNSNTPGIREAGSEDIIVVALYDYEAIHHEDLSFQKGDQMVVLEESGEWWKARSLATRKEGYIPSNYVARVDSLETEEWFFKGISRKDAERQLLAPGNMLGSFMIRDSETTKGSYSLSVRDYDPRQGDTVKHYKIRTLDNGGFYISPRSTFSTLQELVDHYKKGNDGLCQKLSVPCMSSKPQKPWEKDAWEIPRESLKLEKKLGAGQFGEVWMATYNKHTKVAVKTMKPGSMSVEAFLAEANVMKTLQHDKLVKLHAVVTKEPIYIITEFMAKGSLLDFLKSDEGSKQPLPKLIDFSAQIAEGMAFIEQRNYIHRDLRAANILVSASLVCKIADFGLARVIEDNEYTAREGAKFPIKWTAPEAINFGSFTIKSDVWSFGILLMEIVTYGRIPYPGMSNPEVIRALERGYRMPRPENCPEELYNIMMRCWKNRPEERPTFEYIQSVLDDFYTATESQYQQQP
Protocol: as §1, §2

[9] = target: T9, CDK1/CycE1 (Homo sapiens, UniProt P06493)
T9 construct: either as full-length or enzymatically active fragments; purchased ProQinase GmbH (Reaction Biology); host or cells: Sf9 insect cells or E. coli
Protocol: as §1, §2

[10] = target: T10, FER (Homo sapiens, UniProt P16591)
T10 construct: either as full-length or enzymatically active fragments; purchased ProQinase GmbH (Reaction Biology); host or cells: Sf9 insect cells or E. coli
Protocol: as §1, §2

[11] = target: T11, AXL (Homo sapiens, UniProt P30530)
T11 construct: either as full-length or enzymatically active fragments; purchased ProQinase GmbH (Reaction Biology)
Protocol: as §1, §2

[12] = target: T12, EIF2AK2 (Homo sapiens, UniProt P19525)
T12 construct: either as full-length or enzymatically active fragments; purchased ProQinase GmbH (Reaction Biology); host or cells: Sf9 insect cells or E. coli
Protocol: as §1, §2

[13] = target: T13, NLK (Homo sapiens, UniProt Q9UBE8)
T13 construct: either as full-length or enzymatically active fragments; purchased ProQinase GmbH (Reaction Biology)
Protocol: as §1, §2

[14] = target: T14, PRKG1 (Homo sapiens, UniProt Q13976)
T14 construct: either as full-length or enzymatically active fragments; purchased ProQinase GmbH (Reaction Biology)
Protocol: as §1, §2

[15] = target: T15, FES (Homo sapiens, UniProt P07332)
T15 construct: purchased ProQinase GmbH (Reaction Biology)
Protocol: as §1, §2

[16] = target: T16, STK17A (Homo sapiens, UniProt Q9UEE5)
T16 construct: either as full-length or enzymatically active fragments; purchased ProQinase GmbH (Reaction Biology)
T16 sequence (Q9UEE5 whole entry, the tested form may be a part): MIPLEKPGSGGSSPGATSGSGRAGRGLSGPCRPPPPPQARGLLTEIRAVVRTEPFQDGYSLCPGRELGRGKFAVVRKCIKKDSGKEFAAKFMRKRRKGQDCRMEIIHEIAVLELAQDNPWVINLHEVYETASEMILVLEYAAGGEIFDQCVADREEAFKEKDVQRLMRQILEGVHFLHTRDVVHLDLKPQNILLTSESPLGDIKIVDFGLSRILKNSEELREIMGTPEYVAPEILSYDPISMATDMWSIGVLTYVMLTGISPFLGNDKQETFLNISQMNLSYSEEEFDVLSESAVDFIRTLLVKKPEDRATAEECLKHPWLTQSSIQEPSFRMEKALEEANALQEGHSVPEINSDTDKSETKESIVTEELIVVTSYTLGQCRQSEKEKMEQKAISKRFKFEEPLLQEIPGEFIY
Protocol: as §1, §2

[17] = target: T17, WNK1 (Homo sapiens, UniProt Q9H4A3)
T17 construct: either as full-length or enzymatically active fragments; purchased ProQinase GmbH (Reaction Biology)
Protocol: as §1, §2

[18] = target: T18, RET (Homo sapiens, UniProt P07949)
T18 construct: either as full-length or enzymatically active fragments; purchased ProQinase GmbH (Reaction Biology)
Protocol: as §1, §2

[19] = target: T19, CDK2/CycE1 (Homo sapiens, UniProt P24941)
T19 construct: either as full-length or enzymatically active fragments; purchased ProQinase GmbH (Reaction Biology); host or cells: Sf9 insect cells or E. coli (not specified per kinase)
Protocol: as §1, §2

[20] = target: T20, EPHA6 (Homo sapiens, UniProt Q9UF33)
T20 construct: either as full-length or enzymatically active fragments; purchased ProQinase GmbH (Reaction Biology)
Protocol: as §1, §2

[21] = target: T21, AKT1 (Homo sapiens, UniProt P31749)
T21 construct: either as full-length or enzymatically active fragments; purchased ProQinase GmbH (Reaction Biology)
Protocol: as §1, §2

[22] = target: T22, RIPK2 (Homo sapiens, UniProt O43353)
T22 construct: either as full-length or enzymatically active fragments; purchased ProQinase GmbH (Reaction Biology)
T22 sequence (O43353 whole entry, the tested form may be a part): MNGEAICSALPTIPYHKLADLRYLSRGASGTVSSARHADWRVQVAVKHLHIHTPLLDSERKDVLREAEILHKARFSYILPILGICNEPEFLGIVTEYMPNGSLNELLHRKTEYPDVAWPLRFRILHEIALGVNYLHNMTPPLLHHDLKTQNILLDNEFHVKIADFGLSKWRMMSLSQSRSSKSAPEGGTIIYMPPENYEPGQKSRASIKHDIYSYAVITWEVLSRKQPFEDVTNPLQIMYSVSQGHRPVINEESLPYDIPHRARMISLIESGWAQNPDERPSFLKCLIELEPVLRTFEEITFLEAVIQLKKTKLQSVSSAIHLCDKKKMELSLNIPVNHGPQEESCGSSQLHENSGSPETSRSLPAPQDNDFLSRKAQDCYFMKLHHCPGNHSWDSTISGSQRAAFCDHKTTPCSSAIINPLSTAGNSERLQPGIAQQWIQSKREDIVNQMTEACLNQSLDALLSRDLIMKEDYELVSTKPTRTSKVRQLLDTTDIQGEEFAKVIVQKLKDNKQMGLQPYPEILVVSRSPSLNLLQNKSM
Protocol: as §1, §2

[23] = target: T23, PLK3 (Homo sapiens, UniProt Q9H4B4)
T23 construct: either as full-length or enzymatically active fragments; purchased ProQinase GmbH (Reaction Biology); host or cells: Sf9 insect cells or E. coli
Protocol: as §1, §2

[24] = target: T24, MKNK1 (Homo sapiens, UniProt Q9BUB5)
T24 construct: purchased ProQinase GmbH (Reaction Biology)
T24 sequence (Q9BUB5 whole entry): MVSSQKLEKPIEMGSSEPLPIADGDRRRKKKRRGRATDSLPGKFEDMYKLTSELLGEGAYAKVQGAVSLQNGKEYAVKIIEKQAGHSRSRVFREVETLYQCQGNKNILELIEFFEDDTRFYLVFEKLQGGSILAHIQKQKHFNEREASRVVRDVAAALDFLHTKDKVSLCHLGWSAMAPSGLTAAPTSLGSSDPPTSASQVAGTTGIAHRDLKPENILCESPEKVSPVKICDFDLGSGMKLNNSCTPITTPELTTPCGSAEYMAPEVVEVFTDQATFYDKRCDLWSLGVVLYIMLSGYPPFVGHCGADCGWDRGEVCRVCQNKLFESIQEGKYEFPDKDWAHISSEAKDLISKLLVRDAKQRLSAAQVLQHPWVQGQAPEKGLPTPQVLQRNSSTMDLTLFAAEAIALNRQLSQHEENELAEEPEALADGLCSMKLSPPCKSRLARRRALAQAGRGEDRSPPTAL
Protocol: as §1, §2

[25] = target: T25, TAOK2 (Homo sapiens, UniProt Q9UL54)
T25 construct: either as full-length or enzymatically active fragments; purchased ProQinase GmbH (Reaction Biology)
Protocol: as §1, §2

[26] = target: T26, FGFR2 (Homo sapiens, UniProt P21802)
T26 construct: purchased ProQinase GmbH (Reaction Biology); host or cells: Sf9 insect cells or E. coli (not specified per kinase)
Protocol: as §1, §2

[27] = target: T27, AKT3 (Homo sapiens, UniProt Q9Y243)
T27 construct: purchased ProQinase GmbH (Reaction Biology)
Protocol: as §1, §2

[28] = target: T28, ASK1 (Homo sapiens, UniProt Q99683)
T28 construct: either as full-length or enzymatically active fragments; purchased ProQinase GmbH (Reaction Biology)
Protocol: as §1, §2

[29] = target: T29, TRKB (Homo sapiens, UniProt Q16620)
T29 construct: purchased ProQinase GmbH (Reaction Biology)
Protocol: as §1, §2

[30] = target: T30, CLK3 (Homo sapiens, UniProt P49761)
T30 construct: either as full-length or enzymatically active fragments; purchased ProQinase GmbH (Reaction Biology)
T30 sequence (P49761 whole entry, the tested form may be a part): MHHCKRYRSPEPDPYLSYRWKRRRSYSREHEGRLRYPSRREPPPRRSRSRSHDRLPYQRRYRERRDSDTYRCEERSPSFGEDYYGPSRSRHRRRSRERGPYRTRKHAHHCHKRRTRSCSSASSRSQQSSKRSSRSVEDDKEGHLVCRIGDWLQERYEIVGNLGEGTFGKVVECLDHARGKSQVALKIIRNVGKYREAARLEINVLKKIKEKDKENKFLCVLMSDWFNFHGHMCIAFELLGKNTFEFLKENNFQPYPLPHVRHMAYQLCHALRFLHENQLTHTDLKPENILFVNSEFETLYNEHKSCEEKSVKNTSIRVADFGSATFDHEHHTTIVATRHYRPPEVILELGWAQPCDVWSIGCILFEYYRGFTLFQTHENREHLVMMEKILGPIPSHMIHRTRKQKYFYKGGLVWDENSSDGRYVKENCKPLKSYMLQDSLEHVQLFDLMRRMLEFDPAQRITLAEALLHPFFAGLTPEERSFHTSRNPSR
Protocol: as §1, §2

[31] = target: T31, PRKX (Homo sapiens, UniProt P51817)
T31 construct: either as full-length or enzymatically active fragments; purchased ProQinase GmbH (Reaction Biology)
T31 sequence (P51817 whole entry, the tested form may be a part): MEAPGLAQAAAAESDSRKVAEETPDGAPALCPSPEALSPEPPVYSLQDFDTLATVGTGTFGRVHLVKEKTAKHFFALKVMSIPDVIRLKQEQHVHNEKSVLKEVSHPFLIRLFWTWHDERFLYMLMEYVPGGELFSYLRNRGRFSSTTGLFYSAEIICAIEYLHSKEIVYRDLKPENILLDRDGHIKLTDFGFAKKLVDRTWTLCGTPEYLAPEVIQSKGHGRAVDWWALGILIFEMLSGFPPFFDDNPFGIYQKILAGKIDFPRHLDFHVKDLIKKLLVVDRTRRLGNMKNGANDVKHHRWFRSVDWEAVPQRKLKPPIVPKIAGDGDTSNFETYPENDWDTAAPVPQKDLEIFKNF
Protocol: as §1, §2

C=CC(=O)Nc1ccc(C(=O)N2CC[C@@H](Nc3ncc(C#N)cn3)C2)cc1 [Compound 4, (R)-N-(4-(3-((5-cyanopyrimidin-2-yl)amino)pyrrolidine-1-carbonyl)phenyl)acrylamide]
inhibition at 1 µM [1]: -4%
inhibition at 1 µM [2]: -3%
inhibition at 1 µM [3]: 11%
inhibition at 1 µM [4]: 8%
inhibition at 1 µM [5]: 9%
inhibition at 1 µM [6]: 4%
inhibition at 1 µM [7]: -8%
inhibition at 1 µM [8]: 0%
inhibition at 1 µM [9]: 11%
inhibition at 1 µM [10]: 15%
inhibition at 1 µM [11]: 3%
inhibition at 1 µM [12]: 15%
inhibition at 1 µM [13]: 4%
inhibition at 1 µM [14]: -12%
inhibition at 1 µM [15]: -2%
inhibition at 1 µM [16]: -4%
inhibition at 1 µM [17]: 17%
inhibition at 1 µM [18]: 5%
inhibition at 1 µM [19]: 9%
inhibition at 1 µM [20]: 5%
inhibition at 1 µM [21]: 2%
inhibition at 1 µM [22]: 5%
inhibition at 1 µM [23]: 13%
inhibition at 1 µM [24]: -2%
inhibition at 1 µM [25]: 5%
inhibition at 1 µM [26]: 0%
inhibition at 1 µM [27]: -2%
inhibition at 1 µM [28]: 7%
inhibition at 1 µM [29]: -1%
inhibition at 1 µM [30]: -9%
inhibition at 1 µM [31]: -7%
